According to article PMC5382537, “Molecular Basis of Olfactory Chemoreception in the Common Bed Bug, Cimex lectularius” (Scientific Reports, 2017):

How the values were obtained:
Assay in all cases: two-electrode voltage clamp, Xenopus oocytes
[1] = tested on: T1, OR5; assay type: cell-based, Cimex lectularius; conditions: co-expressed with ORCO; pH 7.6 Ringer's solution; −80 mV; agonist current
T1 construct: full-length cDNA from adult antennae in pT7Ts; co-expressed with ORCO in Xenopus oocytes; called OR1 in the group's previous work; with Odorant receptor coreceptor

[2] = tested on: T2, OR21; assay type: cell-based, Cimex lectularius; conditions: co-expressed with ORCO; pH 7.6 Ringer's solution; −80 mV; agonist current
T2 construct: full-length cDNA from adult antennae in pT7Ts; co-expressed with ORCO in Xenopus oocytes; with Odorant receptor coreceptor

[3] = tested on: T3, OR1; assay type: cell-based, Cimex lectularius; conditions: co-expressed with ORCO; pH 7.6 Ringer's solution; −80 mV; agonist current
T3 construct: full-length cDNA from adult antennae in pT7Ts; co-expressed with ORCO in Xenopus oocytes; OR numbering of the bed bug genome annotation (47 ORs), not the earlier group naming in which OR5 was called OR1; with Odorant receptor coreceptor

[4] = tested on: T4, OR19; assay type: cell-based, Cimex lectularius; conditions: co-expressed with ORCO; pH 7.6 Ringer's solution; −80 mV; agonist current
T4 construct: full-length cDNA from adult antennae in pT7Ts; co-expressed with ORCO in Xenopus oocytes; with Odorant receptor coreceptor

[5] = tested on: T5, OR12; assay type: cell-based, Cimex lectularius; conditions: co-expressed with ORCO; pH 7.6 Ringer's solution; −80 mV; agonist current
T5 construct: full-length cDNA from adult antennae in pT7Ts; co-expressed with ORCO in Xenopus oocytes; with Odorant receptor coreceptor

[6] = tested on: T6, OR42; assay type: cell-based, Cimex lectularius; conditions: co-expressed with ORCO; pH 7.6 Ringer's solution; −80 mV; agonist current
T6 construct: full-length cDNA from adult antennae in pT7Ts; co-expressed with ORCO in Xenopus oocytes; with Odorant receptor coreceptor

[7] = biological target: T7, OR37 (Cimex lectularius, UniProt A0A8I6S1W4); assay type: cell-based; conditions: co-expressed with ORCO; pH 7.6 Ringer's solution; −80 mV; agonist current
T7 construct: gene 106669445; full-length cDNA from adult antennae in pT7Ts; co-expressed with ORCO in Xenopus oocytes; with Odorant receptor coreceptor

[8] = tested on: T8, OR20; assay type: cell-based, Cimex lectularius; conditions: co-expressed with ORCO; pH 7.6 Ringer's solution; −80 mV; agonist current
T8 construct: full-length cDNA from adult antennae in pT7Ts; co-expressed with ORCO in Xenopus oocytes; with Odorant receptor coreceptor

[9] = tested on: T9, OR47; assay type: cell-based, Cimex lectularius; conditions: co-expressed with ORCO; pH 7.6 Ringer's solution; −80 mV; agonist current
T9 construct: full-length cDNA from adult antennae in pT7Ts; co-expressed with ORCO in Xenopus oocytes; with Odorant receptor coreceptor

[10] = tested on: T10, OR36; assay type: cell-based, Cimex lectularius; conditions: co-expressed with ORCO, pH 7.6 Ringer's solution, −80 mV, agonist current
T10 construct: full-length cDNA from adult antennae in pT7Ts; co-expressed with ORCO in Xenopus oocytes; with Odorant receptor coreceptor

[11] = tested on: T11, OR46; assay type: cell-based, Cimex lectularius; conditions: co-expressed with ORCO; pH 7.6 Ringer's solution; −80 mV; agonist current
T11 construct: full-length cDNA from adult antennae in pT7Ts; co-expressed with ORCO in Xenopus oocytes; with Odorant receptor coreceptor

[12] = tested on: T12, OR15; assay type: cell-based, Cimex lectularius; conditions: co-expressed with ORCO; pH 7.6 Ringer's solution; −80 mV; agonist current
T12 construct: full-length cDNA from adult antennae in pT7Ts; co-expressed with ORCO in Xenopus oocytes; with Odorant receptor coreceptor

T7 sequence (A0A8I6S1W4 1-374): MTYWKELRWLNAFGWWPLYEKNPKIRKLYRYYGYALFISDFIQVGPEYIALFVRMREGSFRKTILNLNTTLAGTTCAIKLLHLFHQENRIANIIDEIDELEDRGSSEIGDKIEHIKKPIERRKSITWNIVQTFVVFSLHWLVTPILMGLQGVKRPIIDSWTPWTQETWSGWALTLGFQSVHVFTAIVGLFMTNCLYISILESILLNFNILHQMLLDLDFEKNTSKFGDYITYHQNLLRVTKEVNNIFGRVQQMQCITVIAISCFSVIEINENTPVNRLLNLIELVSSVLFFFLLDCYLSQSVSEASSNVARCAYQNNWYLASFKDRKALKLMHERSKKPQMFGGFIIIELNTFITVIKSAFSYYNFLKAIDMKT
T7 sequence (A0A0A0U7J0 1-451 partner): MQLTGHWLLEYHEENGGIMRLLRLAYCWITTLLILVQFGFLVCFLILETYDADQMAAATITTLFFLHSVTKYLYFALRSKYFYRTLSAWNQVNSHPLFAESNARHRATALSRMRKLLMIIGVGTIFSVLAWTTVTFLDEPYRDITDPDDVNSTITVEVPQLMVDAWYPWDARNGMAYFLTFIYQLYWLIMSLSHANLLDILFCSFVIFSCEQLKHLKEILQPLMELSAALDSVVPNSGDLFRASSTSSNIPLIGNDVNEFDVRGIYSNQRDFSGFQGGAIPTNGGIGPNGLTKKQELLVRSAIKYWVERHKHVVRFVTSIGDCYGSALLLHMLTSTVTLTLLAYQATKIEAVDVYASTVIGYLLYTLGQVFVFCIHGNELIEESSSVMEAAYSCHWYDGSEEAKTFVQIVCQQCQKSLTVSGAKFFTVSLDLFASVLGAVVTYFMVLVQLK

For `CCCCCCCCCC=O` [decanal], the EC50 [1] was 1.53 × 10^−6 v/v dilution and the EC50 [2] was 4.27 × 10^−6 v/v dilution.
`CC12CCC(CC1)C(C)(C)O2` [eucalyptol] was tested, and the EC50 [3] was 1.88 × 10^−5 v/v dilution.
In the case of `CCCC(C)=O` [2-pentanone], the EC50 [4] is reported as 4.13 × 10^−6 v/v dilution.
With `CCCCCCCCC=O` [nonanal] the EC50 [1] was 1.32 × 10^−7 v/v dilution.
For `CCCCC/C=C/CO` [trans-2-octen-1-ol], the EC50 [5] was 1.03 × 10^−4 v/v dilution.
With `CC1=CC[C@@H]2C[C@H]1C2(C)C` [(+)-α-pinene] the EC50 [6] was 1.32 × 10^−5 v/v dilution.
In the case of `CC(C)=CCCC(C)=CC=O` [citral], the EC50 [7] is reported as 3.32 × 10^−8 v/v dilution.
`CC1=CC[C@@H]2[C@H](C1)C2(C)C` [1s-(+)-3-carene] was tested, and the EC50 [8] was 6.85 × 10^−6 v/v dilution.
With `CC12CCC(CC1=O)C2(C)C` (centres unmarked) [camphor] the EC50 [3] was 1.94 × 10^−5 v/v dilution.
For `O=c1ccc2ccccc2o1` [coumarin], the EC50 [9] was 2 × 10^−5 v/v dilution and the EC50 [6] was 1.45 × 10^−5 v/v dilution.
With `CC(C)[C@H]1CC[C@H](C)CC1=O` [(+)-menthone] the EC50 [7] was 1.93 × 10^−7 v/v dilution, the EC50 ([10]; b26 prints 9.67 × 10^−8 for the same pair) was 9.92 × 10^−8 v/v dilution and the EC50 [11] was 3.46 × 10^−5 v/v dilution.
With `C=C1CC/C=C(\C)CC[C@@H]2[C@@H]1CC2(C)C` [β-caryophyllene] the EC50 [12] was 6.46 × 10^−6 v/v dilution.
`C=CC(O)CCCCC` (centres unmarked) [1-octen-3-ol] was tested, and the EC50 [8] was 6.95 × 10^−6 v/v dilution.
For `CC(C)[C@@H]1CC[C@@H](C)CC1=O` [(−)-menthone], the EC50 [10] was 1.64 × 10^−7 v/v dilution.
`CCCCC(C)=O` [2-hexanone] was tested, and the EC50 [4] was 1.33 × 10^−6 v/v dilution.
With `CCCCCCCCC(C)O` (centres unmarked) [2-decanol] the EC50 [2] was 7.55 × 10^−6 v/v dilution.
